Data: patent publication US20080119412A1, “Polypeptides for Modulating Binding of Trp Channel Proteins and Trp- Associated Proteins” (NoNO Inc., priority 2003, published 2008)
Residues, ends and D or L forms follow the SMILES beside them. *: point of attachment. Biotin = O=C1N[C@H]2[C@H](CS[C@H]2CCCCC(=O)*)N1

Key:
Experiment in all cases: G3 assay titration, GST-PDZ fusion / biotinylated peptide
Format in all cases: binding
[1] = biological target: T1, Syntrophin 1 alpha d1 (Homo sapiens, UniProt Q13424)
T1 construct: made in house; host or cells: E. coli (DH5alpha, BL21 or JM109)
T1 sequence (Q13424 84-177): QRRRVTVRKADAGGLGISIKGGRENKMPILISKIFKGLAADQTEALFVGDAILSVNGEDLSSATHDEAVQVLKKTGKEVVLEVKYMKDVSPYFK

[2] = biological target: T2, PAR3L d3 (Homo sapiens, UniProt Q8TEW8)
T2 construct: made in house; host or cells: E. coli (DH5alpha, BL21 or JM109)
T2 sequence (Q8TEW8 with tags, fused parts or gaps): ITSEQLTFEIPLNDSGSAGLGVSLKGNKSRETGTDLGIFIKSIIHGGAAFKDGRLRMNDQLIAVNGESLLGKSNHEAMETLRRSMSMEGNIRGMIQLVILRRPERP

[3] = biological target: T3, ZO-1 d2 (Homo sapiens, UniProt Q07157, DEL264-264)
T3 construct: made in house; host or cells: E. coli (DH5alpha, BL21 or JM109)
T3 sequence (Q07157 with tags, fused parts or gaps DEL264-264): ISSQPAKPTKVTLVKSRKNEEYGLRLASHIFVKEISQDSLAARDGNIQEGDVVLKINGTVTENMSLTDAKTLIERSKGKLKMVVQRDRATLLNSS
How it was run: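 ELISA with anti-GST-captured GST-PDZ fusions (5 μg/ml), probed by biotinylated Tat-TRPM7 C-terminal peptide precomplexed 20 min with HRP-streptavidin. Binding ran 30 min at room temperature; TMB read at 450 nm. Peptide was titrated from 0.002 to 2 μM and data fitted to a binding equation.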

[4] = biological target: T4, TIP1 d1 (Homo sapiens, UniProt O14907)
T4 construct: made in house; host or cells: E. coli (DH5alpha, BL21 or JM109)
T4 sequence (O14907 14-116): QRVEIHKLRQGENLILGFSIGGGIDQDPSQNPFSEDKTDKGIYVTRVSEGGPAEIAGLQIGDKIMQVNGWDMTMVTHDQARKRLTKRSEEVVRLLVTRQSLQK
Method: (§1) The G3 assay is identical to the G0 assay with the following exceptions. The peptides are typically present at 0.1 μM rather than 20 μM. The peptides are also pre-incubated with the HRP-streptavidin prior to adding to the assay plate. In the G0 assay, free peptide is incubated with the PDZ proteins prior to the addition of the HRP-streptavidin. Thus, for the G0 assay one can lose signal if the bound peptide dissociates from the PDZ protein prior to the addition of the HRP-streptavidin. In the G3 modified assay the HRP-streptavidin/peptide complex is added to the plate in one step, thus increasing the likelihood that all the bound peptide will be bound to HRP-streptavidin. The G3 modified assay increases the chance of observing weak interactions.
(§2) This example describes assays to identify binding between TRPM7 and PDZ domains. GST-PDZ fusions are produced that each contain an entire PDZ domain (or multiple PDZ domains), the collection encompassing approximately 90% of all PDZ domains identified in the human genome. (See Table 5 and Section V (PDZ Proteins and PL Protein Interactions Disclosure). Biotinylated peptide corresponding to 11 residues of Tat coupled to the C-terminal 9 amino acids of TRPM7 ([…]; SEQ ID NO:258) is synthesized and purified by HPLC.
(§3) • Nunc MaxiSorp 96 well Immuno-plate, Nunc • PBS pH 7.4 (phosphate buffered saline, 8 g NaCl, 0.29 g KCl, 1.44 g Na2HPO4, 0.24 g KH2PO4, add H2O to 1 liter and pH 7.4; 0.2 μm filter) • Assay Buffer: 2% BSA in PBS (20 g of bovine serum albumin per liter PBS, fraction V, ICN Biomedicals, cat#IC15142983 • Goat anti-GST polyclonal Ab, stock 5 mg/ml, stored at 4° C., Amersham Pharmacia cat#27-4577-01 • Dilute 1:1000 in PBS, final concentration 5 μg/ml. • HRP-Streptavidin, 2.5 mg/2 ml stock stored at 4° C., Zymed cat#43-4323, dilute 1:2000 into Assay buffer, final concentration of […] • Wash Buffer, PBS • Biotinylated peptides (HPLC purified, stock solution stored in −20° C. freezer) • GST-PRISM proteins (stock stored at −80° C., after 1st thaw store in −10° C. freezer) • TMB (3,3′,5,5′, teramethylbensidine), tablets, Sigma cat.#T5525 • Per plate, dissolve 1 tablet in 1 ml DMSO, add 9 ml Citrate/Phosphate buffer pH 5.4 and 2 μL H2O2 • 0.1 M H2SO4, Sigma cat.#S1526 • 12-w multichannel pipettor & tips • 50 ml reagent reservoirs, Costar#4870 • 50, 15 ml polypropylene conical tubes • Costar Transtar 96 Costar #7605 • Transtar 96 Cartridge Costar #7610 • Molecular Devices microplate reader (450 & 650 nm filters) with SoftMax Pro software *When using reagents stored at or 4° C. or −20° C., remove & keep on ice
(§4) • 1. Coat plate with 100 μl of 5 μg/ml anti-GST, overnight at 4° C. • 2. Dump contents of plate & out tap dry on paper towels • 3. Block with 200 μl Assay Buffer for 2 hrs at room temperature • 4. Prepare proteins at 5 μg/ml in Assay Buffer • 5. Wash 3× with cold PBS (4° C.), avoiding letting the plates dry out • 6. Add proteins at 50 μl per well, incubate 1 to 2 hrs at 4° C. • 7. Prepare peptides to desired concentration in Assay Buffer • 8. Wash 3× with cold PBS (4° C.), avoiding letting the plates dry out • 9. Add HRP-Streptavidin/peptide complex [prepared by incubating for 20 minutes at room temperature HRP-Streptavidin (1:2000) with the desired biotin-peptide concentration for 20 minutes at room temperature] at 50 μl per well on ice • 10. Place at room temperature for exactly 30 minutes • 11. Promptly wash 5× with PBS at room temperature • 12. Add 100 μl/well TMB substrate (write time on plate) • 13. Incubate in dark at room temperature for a maximum of 30 minutes • 14. Read plate at 25 minutes (650 nm), optional • 15. Stop reaction with 100 μl of 0.18 M H2SO4, 30 minutes after adding TMB • Take last reading at 450 nm soon after stopping reaction
(§5) The G3 assay was performed on a subset of the PDZ domains as in Example II except that the concentration of peptide was 0.002 μM, […], 0.1 μM, 0.2 μM, 1 μM, and 2 μM. Data was fitted to the equation: […]

[5] = biological target: T5, SITAC-18 d1 (Homo sapiens, UniProt Q9H190)
T5 construct: made in house; host or cells: E. coli (DH5alpha, BL21 or JM109)
T5 sequence (Q9H190 104-195): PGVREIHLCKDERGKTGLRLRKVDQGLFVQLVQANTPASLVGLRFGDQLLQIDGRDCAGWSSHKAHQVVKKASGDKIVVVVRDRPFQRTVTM
Method: as §1, §2, §3, §4, §5

[6] = biological target: T6, KIAA1284 d1 (Homo sapiens, UniProt Q9ULD6)
T6 construct: made in house; host or cells: E. coli (DH5alpha, BL21 or JM109)
T6 sequence (Q9ULD6 159-271): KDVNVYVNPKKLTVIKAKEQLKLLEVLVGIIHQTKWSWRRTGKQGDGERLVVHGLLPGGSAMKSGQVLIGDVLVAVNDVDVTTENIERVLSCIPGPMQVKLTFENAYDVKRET
Method: as §1, §2, §3, §4, §5

[7] = biological target: T7, MUPP1 d3 (Homo sapiens, UniProt O75970)
T7 construct: made in house; host or cells: E. coli (DH5alpha, BL21 or JM109)
T7 sequence (O75970 with tags, fused parts or gaps): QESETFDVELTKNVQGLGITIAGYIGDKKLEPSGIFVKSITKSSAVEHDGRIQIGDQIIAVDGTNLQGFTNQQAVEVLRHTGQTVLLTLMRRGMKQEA
Method: as §1, §2, §3, §4, §5

**Q.** `CSCC[C@H](NC(=O)[C@H](CC(C)C)NC(=O)[C@H](CCCNC(=N)N)NC(=O)[C@@H](NC(=O)[C@H](CO)NC(=O)[C@H](CC(N)=O)NC(=O)[C@@H](NC(=O)[C@H](CO)NC(=O)[C@H](CCCNC(=N)N)NC(=O)[C@H](CCCNC(=N)N)NC(=O)[C@H](CCCNC(=N)N)NC(=O)[C@H](CCC(N)=O)NC(=O)[C@H](CCCNC(=N)N)NC(=O)[C@H](CCCNC(=N)N)NC(=O)[C@H](CCCCN)NC(=O)[C@H](CCCCN)NC(=O)[C@H](CCCNC(=N)N)NC(=O)CNC(=O)[C@H](Cc1ccc(O)cc1)NC(=O)CCCC[C@@H]1SC[C@@H]2NC(=O)N[C@@H]21)[C@@H](C)O)C(C)C)C(=O)N[C@@H](CC(C)C)C(=O)O` [Tat-TRPM7 peptide] (Biotin-YGRKKRRQRRRSTNSVRLML-OH) was tested. Which EC50 [1] did it give?
**A.** 160 nM

**Q.** What about the EC50 [2] of the same compound?
**A.** 100 nM

**Q.** What about the EC50 [3] of the same compound?
**A.** 33 nM

**Q.** And the EC50 [4]?
**A.** < 1000 nM

**Q.** And the EC50 [5]?
**A.** < 1000 nM

**Q.** And the EC50 [6]?
**A.** > 2000 nM

**Q.** And the EC50 [7]?
**A.** 290 nM
